Results published in publication PMC6838013, “Insight Into Mosquito GnRH-Related Neuropeptide Receptor Specificity Revealed Through Analysis of Naturally Occurring and Synthetic Analogs of This Neuropeptide Family” (Frontiers in Endocrinology, 2019).
Values joined by “and” are separate entries in the source; they are usually repeats but may differ in a detail not shown here. Equal entries are not always repeated. Non-standard residues stand in square brackets, D forms with d. Residues, ends and D or L forms follow the SMILES beside them. pGlu = O=C1CC[C@@H](C(=O)O)N1

How the values were obtained:
[1] = tested on: A. aegypti ACP receptor (AedaeACPR); assay: Calcium bioluminescence (aequorin) reporter assay of heterologously expressed ACPR; type: cell-based, Aedes aegypti
Description: Therefore, to improve the bioluminescent signal linked to calcium mobilization following receptor activation, which was required in order to provide greater signal to noise ratio when testing ACP analogs with substitutions leading to intermediate levels of activation of the ACPR, we created a new mammalian expression construct using the dual promoter vector, pBudCE4.1. Specifically, we utilized a cloning strategy as reported previously ([41]) whereby the ACPR was inserted into the multiple cloning site (MCS) downstream of the CMV promoter in pBudCE4.1 using the sense primer SalI-KozakACPR, 5′-[…]-3′ and anti-sense primer XbaI-ACPR, 5′-[…]-3′, which directionally inserted the ACPR within the MCS downstream of the CMV promoter. Secondly, the murine homolog (Gα15) of the human promiscuous G protein, Gα16, which indiscriminately couples a wide variety of GPCRs to calcium signaling ([42]) was inserted into the MCS downstream of the EF1-α promoter in pBudCE4.1 using the sense primer NotI-Gα15, 5′-[…]-3′ and anti-sense primer BglII-Gα15, 5′-[…]-3′, which directionally inserted the murine Gα15 within the MCS downstream of the EF1-α promoter.
(§1) Functional activation of the AedaeACPR and AedaeAKHR-IA receptors was carried out following a previously described mammalian cell culture system involving a Chinese hamster ovary (CHO)-K1 cell line stably expressing aequorin ([43]). Cells were grown in DMEM:F12 media containing 10% heat-inactivated fetal bovine serum (Wisent, St. Bruno, QC), 200 μg/mL Geneticin, 1x antimycotic-antibiotic to approximately 90% confluency, and were transiently transfected using either Lipofectamine LTX with Plus Reagent or Lipofectamine 3000 transfection systems (Invitrogen, Burlington, ON) following manufacturer recommended DNA to transfection reagent ratios. Cells were detached from the culture flasks at 48 h post-transfection using 5 mM EDTA in Dulbecco's PBS. Cells were then prepared for the receptor functional assay following a procedure described previously ([27]). Stocks of peptide analogs of ACP and AKH were used for preparation of serial dilutions all of which were prepared in assay media (0.1% BSA in DMEM:F12) and loaded in quadruplicates into 96-well white luminescence plates (Greiner Bio-One, Germany). Cells were loaded with an automatic injector into each well of the plate containing different peptide analogs at various concentrations as well as negative control (assay media alone) and positive control wells (50 μM ATP). Immediately after injection of the cells, luminescence was measured for 20 s using a Synergy 2 Multi-Mode Microplate Reader (BioTek, Winooski, VT, USA). Calculations, including determination of EC50 values, were conducted in GraphPad Prism 7.02 (GraphPad Software, San Diego, USA) from dose-response curves from 3 to 4 independent biological replicates.

[2] = molecular target: A. aegypti AKHR-IA receptor (AKHR-IA) (Aedes aegypti, UniProt A0A2P1A8S4); assay: Calcium bioluminescence (aequorin) reporter assay of heterologously expressed AKHR-IA; type: cell-based; settings: for Fold-reduction in activity relative to Aedae-AKH: AKHR-IA in CHO-K1 aequorin cells, relative to native Aedae-AKH; for EC50: CHO-K1 cells stably expressing aequorin, transiently transfected with AKHR-IA (pcDNA3.1+), luminescence 20 s, 3 to 4 independent biological replicates, ND = no determined EC50 due to minimal or no detectable activity up to 10 μM
Chain of A. aegypti AKHR-IA receptor (AKHR-IA) (A0A2P1A8S4 1-410): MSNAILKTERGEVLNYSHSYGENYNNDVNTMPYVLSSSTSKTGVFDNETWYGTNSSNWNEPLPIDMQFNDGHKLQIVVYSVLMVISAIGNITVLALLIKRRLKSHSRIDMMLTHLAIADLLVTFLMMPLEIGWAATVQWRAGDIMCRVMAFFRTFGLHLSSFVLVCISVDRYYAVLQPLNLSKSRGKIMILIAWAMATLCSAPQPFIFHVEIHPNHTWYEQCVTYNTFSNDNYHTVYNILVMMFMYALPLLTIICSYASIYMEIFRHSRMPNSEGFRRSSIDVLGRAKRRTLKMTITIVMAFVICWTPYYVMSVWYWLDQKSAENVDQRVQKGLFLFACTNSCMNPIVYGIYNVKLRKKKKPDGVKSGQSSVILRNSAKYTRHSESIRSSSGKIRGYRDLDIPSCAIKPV
Procedure: For each construct, an overnight liquid culture of clonal recombinant bacteria containing the appropriate plasmid construct was grown in antibiotic-containing LB media and used to isolate midiprep DNA using the PureLink Midiprep kit (Life Technologies, Burlington, ON). Midiprep samples were then quantified and sent for sequencing as described previously ([26], [27]).
as §1

SMILES: CC(C)C[C@H](NC(=O)[C@@H]1CCC(=O)N1)C(=O)N[C@H](C(=O)N[C@@H](Cc1ccccc1)C(=O)N[C@H](C(=O)N1CCC[C@H]1C(=O)NCC(=O)N[C@@H](Cc1c[nH]c2ccccc12)C(=O)NCC(=O)N[C@@H](CCC(N)=O)C(N)=O)[C@@H](C)O)[C@@H](C)O [Bommo-AKH] ([pGlu]LTFTPGWGQ-NH2)
- Activity on ACPR at the highest tested dose, in words ([1]; 10 μM, Figure 2, ANOVA and Tukey post-test): inactive
- Fold-reduction in activity relative to AedaeACP ([1]; ACPR in CHO-K1 aequorin cells, relative to native Aedae-ACP): >1,000 fold
- Fold-reduction in activity relative to Aedae-AKH [2]: 11 fold and 10.9 fold
- EC50 [2]: 23.6 nM

SMILES: CC(C)[C@H](NC(=O)[C@@H]1CCC(=O)N1)C(=O)N[C@H](C(=O)N[C@@H](Cc1ccccc1)C(=O)N[C@H](C(=O)N1CCC[C@H]1C(=O)N[C@@H](CC(N)=O)C(=O)N[C@@H](Cc1c[nH]c2ccccc12)C(N)=O)[C@@H](C)O)[C@@H](C)O [V^2-PeramCAH-II] ([pGlu]VTFTPNW-NH2)
- Fold-reduction in activity relative to Aedae-AKH [2]: 68.8 fold
- Fold-reduction in activity relative to Aedae-AKH ([2]; listed as V^2-Peram-CAH-II): 69 fold
- EC50 [2]: 148 nM

SMILES: CC(C)C[C@H](NC(=O)[C@@H]1CCC(=O)N1)C(=O)N[C@H](C(=O)N[C@@H](Cc1ccccc1)C(=O)N[C@H](C(=O)N1CCC[C@H]1C(=O)NCC(=O)N[C@@H](Cc1c[nH]c2ccccc12)C(N)=O)[C@@H](C)O)[C@@H](C)O [Tabat-AKH] ([pGlu]LTFTPGW-NH2)
- Fold-reduction in activity relative to Aedae-AKH [2]: 0.7 fold
- EC50 [2]: 1.52 nM
- Improved efficacy on AKHR-IA relative to native mosquito AKH ([2]; relative to Aedae-AKH): ~ 30% and 30%

SMILES: CC(C)C[C@H](NC(=O)[C@@H]1CCC(=O)N1)C(=O)N[C@H](C(=O)N[C@@H](Cc1ccccc1)C(=O)N[C@H](C(=O)N1CCC[C@H]1C(=O)N[C@@H](CC(N)=O)C(=O)N[C@@H](Cc1c[nH]c2ccccc12)C(N)=O)[C@@H](C)O)[C@@H](C)O [Peram-CAH-II] ([pGlu]LTFTPNW-NH2)
- Fold-reduction in activity relative to Aedae-AKH [2]: 1.0 fold
- EC50 [2]: 2.23 nM

SMILES: CC(C)C[C@H](NC(=O)[C@@H]1CCC(=O)N1)C(=O)N[C@@H](CC(N)=O)C(=O)N[C@@H](Cc1ccccc1)C(=O)N[C@H](C(=O)N1CCC[C@H]1C(=O)N[C@@H](CO)C(=O)N[C@@H](Cc1c[nH]c2ccccc12)C(N)=O)[C@@H](C)O [Erysi-AKH] ([pGlu]LNFTPSW-NH2)
- Fold-reduction in activity relative to Aedae-AKH [2]: 310 fold and 309.9 fold
- EC50 [2]: 669 nM
